The results in this text go back to paper PMC9433317, “Discovery, structure and mechanism of a tetraether lipid synthase” (Nature, 2022).

Test [1] addresses T1, GDGT–MAS (MJ0619; Tes) (Methanocaldococcus jannaschii, UniProt Q58036).
T1 sequence (Q58036 1-506): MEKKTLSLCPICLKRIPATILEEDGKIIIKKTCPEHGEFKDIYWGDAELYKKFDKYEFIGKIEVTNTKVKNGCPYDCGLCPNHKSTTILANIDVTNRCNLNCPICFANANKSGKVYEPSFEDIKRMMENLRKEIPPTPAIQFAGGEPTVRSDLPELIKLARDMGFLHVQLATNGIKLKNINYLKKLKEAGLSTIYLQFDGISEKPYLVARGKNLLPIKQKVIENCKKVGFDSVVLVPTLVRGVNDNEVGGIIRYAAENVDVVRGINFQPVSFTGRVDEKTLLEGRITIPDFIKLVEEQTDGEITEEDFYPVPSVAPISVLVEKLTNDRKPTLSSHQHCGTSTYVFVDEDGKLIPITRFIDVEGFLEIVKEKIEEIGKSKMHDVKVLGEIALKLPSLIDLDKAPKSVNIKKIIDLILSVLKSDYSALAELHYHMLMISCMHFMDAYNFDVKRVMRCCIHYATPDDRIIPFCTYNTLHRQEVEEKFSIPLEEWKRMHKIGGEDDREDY
The experiment in a line: X-ray crystal structures, […] Å and […] Å. The test is classed as binding. The settings on record: with 5'-dAH and bound lipids; bidentate to the unique iron of the radical SAM [Fe4S4] cluster.

Test [2] deals with T1, GDGT–MAS (MJ0619; Tes). The test is described as follows: X-ray crystal structure, […] Å. The conditions noted are these: lipid-exchanged from M. acetivorans extract; with 5'-dAH and methionine; lipid identity assigned from electron density; second lipid site. The class given is binding.

Turning to `CSCC[C@H](N)C(=O)O` [Met, methionine], the “X-ray crystal structures, 1.85 Å and 2.05 Å” value at GDGT–MAS (MJ0619; Tes) [1] was “methionine coordinates to the unique iron in a bidentate manner”.

In the case of `CC(C)CCC[C@@H](C)CCC[C@@H](C)CCC[C@@H](C)CCOC[C@@H](COP(=O)(O)O)OCC[C@H](C)CCC[C@H](C)CCC[C@H](C)CCCC(C)C` [L1P, 2,3-di-O-phytanyl-sn-glycero-1-phosphate], on GDGT–MAS (MJ0619; Tes) [2], the “X-ray crystal structure, 2.05 Å” value was “Unmodelled electron density in the active site was assigned as two archaeal lipid molecules”.
